The compounds below were run against T1, recombinant human GR (Homo sapiens, UniProt P04150) (assay: Human Glucocorticoid Receptor (GR) Assay, fluorescence polarization). Conditions: GS Red tracer, incubated 2 h at r.t., XLfit model 205, read-out: GRhuFL_FP_v2 Mean IC50.
T1 construct: purchased Panvera/Invitrogen P2812 (kit P2893)
T1 sequence (P04150 1-777): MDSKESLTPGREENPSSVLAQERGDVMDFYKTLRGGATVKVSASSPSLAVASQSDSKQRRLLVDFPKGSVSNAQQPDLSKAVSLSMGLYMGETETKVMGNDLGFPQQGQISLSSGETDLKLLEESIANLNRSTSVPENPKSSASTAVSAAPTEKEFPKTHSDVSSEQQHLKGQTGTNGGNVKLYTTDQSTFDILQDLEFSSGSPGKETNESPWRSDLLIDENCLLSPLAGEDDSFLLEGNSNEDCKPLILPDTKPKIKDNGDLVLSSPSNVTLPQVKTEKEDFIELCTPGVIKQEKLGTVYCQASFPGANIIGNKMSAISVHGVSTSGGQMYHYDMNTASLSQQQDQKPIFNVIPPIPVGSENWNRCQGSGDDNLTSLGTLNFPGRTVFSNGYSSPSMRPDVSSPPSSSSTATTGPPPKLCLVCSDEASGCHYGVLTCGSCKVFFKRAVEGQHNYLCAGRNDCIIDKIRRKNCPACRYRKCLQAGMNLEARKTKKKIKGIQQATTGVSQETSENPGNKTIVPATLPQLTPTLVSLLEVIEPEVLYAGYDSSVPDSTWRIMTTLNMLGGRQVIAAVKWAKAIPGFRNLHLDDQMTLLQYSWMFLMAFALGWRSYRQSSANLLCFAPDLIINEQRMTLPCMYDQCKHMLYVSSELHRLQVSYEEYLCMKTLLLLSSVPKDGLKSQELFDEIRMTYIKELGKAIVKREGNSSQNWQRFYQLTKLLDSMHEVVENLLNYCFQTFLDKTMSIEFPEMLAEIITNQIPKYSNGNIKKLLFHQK
Format: binding
Method in brief: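 Fluorescence polarization kit assay: recombinant GR and GS Red fluorescent ligand with Stabilizing Peptide and DTT in potassium phosphate/sodium molybdate/EDTA screening buffer. Plates incubated 2 h in the dark at r.t.; DMSO served as 0% and dexamethasone as 100% control.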

IC50 [nM]	SMILES
3.9	C[C@H](NC(=O)C(C)(C)C)[C@H](Oc1ccc2c(cnn2-c2ccc(F)cc2)c1)c1cccc(Cl)c1 [Example 178, N-[(1R,2S)-1-(3-chlorophenyl)-1-[1-(4-fluorophenyl)indazol-5-yl]oxy-propan-2-yl]-2,2-dimethyl-propanamide]
3.8	C[C@H](NC(=O)C(F)(F)F)[C@H](Oc1cc2cnn(-c3ccc(F)cc3)c2cc1Cl)c1ccc(F)cc1 (racemic) [Example 99, N-[(1RS,2SR)-1-[6-chloro-1-(4-fluorophenyl)indazol-5-yl]oxy-1-(4-fluorophenyl)propan-2-yl]-2,2,2-trifluoro-acetamide]
4.4	Cc1cc2c(cnn2-c2ccc(F)cc2)cc1O[C@H](c1ccccc1)[C@H](C)NC(=O)C(C)(C)C [Example 63, N-[(1R,2S)-1-[1-(4-Fluorophenyl)-6-methyl-indazol-5-yl]oxy-1-phenyl-propan-2-yl]-2,2-dimethyl-propanamide]
3.7	C[C@H](NC(=O)C(F)(F)F)[C@@H](Cc1ccccc1)Oc1ccc2c(cnn2-c2ccc(F)cc2)c1 [Example 72, 2,2,2-Trifluoro-N-[(2S,3R)-3-[1-(4-fluorophenyl)indazol-5-yl]oxy-4-phenyl-butan-2-yl]acetamide]
5.5	C[C@H](NC(=O)C(F)(F)F)[C@H](Oc1ccc2c(cnn2-c2cccc(CN3CCOCC3)c2)c1)c1ccccc1 [Example 145, 2,2,2-trifluoro-N-((1R,2S)-1-(1-(3-(morpholinomethyl)phenyl)-1H-indazol-5-yloxy)-1-phenylpropan-2-yl)acetamide]
6.4	CCCc1ccc([C@@H](Oc2ccc3c(cnn3-c3ccc(F)cc3)c2)[C@H](C)NC(=O)C(F)(F)F)cc1 [Example 165, 2,2,2-trifluoro-N-[(1R,2S)-1-[1-(4-fluorophenyl)indazol-5-yl]oxy-1-(4-propylphenyl)propan-2-yl]acetamide]
3.2	CCSCc1ccc([C@@H](Oc2ccc3c(cnn3-c3ccc(F)cc3)c2)[C@H](C)NC(=O)CO)cc1 [Example 27, N-[(1R,2S)-1-[4-(ethylsulfanylmethyl)phenyl]-1-[1-(4-fluorophenyl)indazol-5-yl]oxy-propan-2-yl]-2-hydroxy-acetamide]
2.7	C[C@H](NC(=O)C(F)F)[C@H](Oc1ccc2c(cnn2-c2ccc(F)cc2)c1)c1ccccc1 [Example 44, 2,2-Difluoro-N-[(1R,2S)-1-[1-(4-fluorophenyl)indazol-5-yl]oxy-1-phenyl-propan-2-yl]acetamide]
2.6	CNC(=O)C(=O)N[C@@H](C)[C@H](Oc1ccc2c(cnn2-c2ccc(F)cc2)c1)c1cccc(OC)c1 [Example 79, N-[(1R,2S)-1-[1-(4-Fluorophenyl)indazol-5-yl]oxy-1-(3-methoxyphenyl)propan-2-yl]-N′-methyl-oxamide]
11	CC(C)n1ncc2cc(O[C@H](c3ccccc3)[C@H](C)NC(=O)C(F)(F)F)ccc21 [Example 129, 2,2,2-Trifluoro-N-[(1R,2S)-1-phenyl-1-(1-propan-2-ylindazol-5-yl)oxy-propan-2-yl]acetamide]
7.2	COc1c(C)cc([C@@H](Oc2ccc3c(cnn3-c3ccc(F)cc3)c2)[C@H](C)NC(=O)C(C)(F)F)cc1C [Example 236, 2,2-difluoro-N-[(1R,2S)-1-[1-(4-fluorophenyl)indazol-5-yl]oxy-1-(4-methoxy-3,5-dimethyl-phenyl)propan-2-yl]propanamide]
5.3	COc1cccc([C@@H](Oc2ccc3c(cnn3-c3ccc(F)cc3)c2)[C@H](C)NC(=O)C(=O)NC(C)(C)C)c1 [Example 82, N-[(1R,2S)-1-[1-(4-Fluorophenyl)indazol-5-yl]oxy-1-(3-methoxyphenyl)propan-2-yl]-N′-tert-butyl-oxamide]
5.3	COCC(=O)N[C@@H](C)[C@H](Oc1ccc2c(cnn2-c2ccc(F)cc2)c1)c1ccc(C)c(F)c1 [Example 259, N-[(1R,2S)-1-(3-fluoro-4-methyl-phenyl)-1-[1-(4-fluorophenyl)indazol-5-yl]oxy-propan-2-yl]-2-methoxy-acetamide]
78	C[C@H](NC(=O)C(F)(F)F)[C@H](Oc1ccc2c(cnn2-c2cccc(CN(C)C)c2)c1)c1ccccc1 [Example 146, N-((1R,2S)-1-(1-(3-((dimethylamino)methyl)phenyl)-1H-indazol-5-yloxy)-1-phenylpropan-2-yl)-2,2,2-trifluoroacetamide]
2.1	CSc1ccc([C@@H](Oc2ccc3c(cnn3-c3ccc(F)cc3)c2)[C@H](C)NC(=O)CO)cc1 [Example 11, N-[(1R,2S)-1-[1-(4-fluorophenyl)indazol-5-yl]oxy-1-(4-methylsulfanylphenyl)propan-2-yl]-2-hydroxy-acetamide]
5.5	Cc1cccc([C@@H](Oc2ccc3c(cnn3-c3ccc(F)cc3)c2)[C@H](C)NC(=O)C(C)(C)C)c1 [Example 185, N-[(1R,2S)-1-[1-(4-fluorophenyl)indazol-5-yl]oxy-1-(3-methylphenyl)propan-2-yl]-2,2-dimethyl-propanamide]
3.1	COCc1ccc(C(=O)N[C@@H](C)[C@H](Oc2ccc3c(cnn3-c3ccc(F)cc3)c2)c2cccc(OC)c2)s1 [Example 299, N-[(1R,2S)-1-[1-(4-fluorophenyl)indazol-5-yl]oxy-1-(3-methoxyphenyl)propan-2-yl]-5-(methoxymethyl)thiophene-2-carboxamide]
4.5	COCC(=O)N[C@@H](C)[C@H](Oc1ccc2c(cnn2-c2ccc(F)cc2)c1)c1ccc(OC)c(F)c1 [Example 262, N-[(1R,2S)-1-(3-fluoro-4-methoxy-phenyl)-1-[1-(4-fluorophenyl)indazol-5-yl]oxy-propan-2-yl]-2-methoxy-acetamide]
3.2	COc1cccc([C@@H](Oc2ccc3c(cnn3-c3ccc(F)cc3)c2)[C@H](C)NC(=O)c2ccncn2)c1 [Example 88, N-((1R,2S)-1-(1-(4-fluorophenyl)-1H-indazol-5-yloxy)-1-(3-methoxyphenyl)propan-2-yl)pyrimidine-4-carboxamide]
3.3	Cc1cnc(C(=O)N[C@@H](C)[C@H](Oc2ccc3c(cnn3-c3ccc(F)cc3)c2)c2cccc(F)c2)s1 [Example 195, N-[(1R,2S)-1-(3-fluorophenyl)-1-[1-(4-fluorophenyl)indazol-5-yl]oxy-propan-2-yl]-5-methyl-1,3-thiazole-2-carboxamide]
3.6	C[C@H](NC(=O)NC1CCCC1)[C@H](Oc1ccc2c(cnn2-c2ccc(F)cc2)c1)c1ccccc1 [Example 104]
4	CC(C)[C@@H](C)NC(=O)N[C@@H](C)[C@H](Oc1ccc2c(cnn2-c2ccc(F)cc2)c1)c1ccccc1 [Example 107]
8.8	Cc1cccc([C@@H](Oc2ccc3c(cnn3-c3ccc(F)cc3)c2)[C@H](C)NC(=O)c2ncc(C)s2)c1 [Example 207, N-[(1R,2S)-1-[1-(4-fluorophenyl)indazol-5-yl]oxy-1-(3-methylphenyl)propan-2-yl]-5-methyl-1,3-thiazole-2-carboxamide]
2.1	COC(=O)C(=O)N[C@@H](C)[C@H](Oc1ccc2c(cnn2-c2ccc(F)cc2)c1)c1ccccc1 [Example 35, Methyl [(1R,2S)-1-[1-(4-fluorophenyl)indazol-5-yl]oxy-1-phenyl-propan-2-yl]carbamoylformate]
3.9	COc1cccc([C@@H](Oc2ccc3c(cnn3-c3ccc(F)cc3)c2)[C@H](C)NC(=O)c2ncc(C)s2)c1 [Example 274, N-[(1R,2S)-1-[1-(4-fluorophenyl)indazol-5-yl]oxy-1-(3-methoxyphenyl)propan-2-yl]-5-methyl-1,3-thiazole-2-carboxamide]
3.1	CCC[C@H](NC(=O)C(C)(C)C)[C@H](Oc1ccc2c(cnn2-c2ccc(F)cc2)c1)c1cccc(OC)c1 [Example 94, N-((1R,2S)-1-(1-(4-fluorophenyl)-1H-indazol-5-yloxy)-1-(3-methoxyphenyl)pentan-2-yl)pivalamide]
5.7	Cc1cc(C)c([C@@H](Oc2ccc3c(cnn3-c3ccc(F)cc3)c2)[C@H](C)NC(=O)C2(C)CC2)cc1C [Example 224, N-[(1R,2S)-1-[1-(4-fluorophenyl)indazol-5-yl]oxy-1-(2,4,5-trimethylphenyl)propan-2-yl]-1-methyl-cyclopropane-1-carboxamide]
3.9	Cc1cc2c(cnn2-c2ccc(F)cc2)cc1O[C@H](c1ccccc1)[C@H](C)NC(=O)CO [Example 64, N-[(1R,2S)-1-[1-(4-Fluorophenyl)-6-methyl-indazol-5-yl]oxy-1-phenyl-propan-2-yl]-2-hydroxy-acetamide]
16	C[C@H](NC(=O)C(F)(F)F)[C@H](Oc1ccc2c(cnn2-c2ccc(F)cc2)c1)c1ccc(C(C)(C)C)cc1 [Example 163, 2,2,2-trifluoro-N-[(1R,2S)-1-[1-(4-fluorophenyl)indazol-5-yl]oxy-1-(4-tert-butylphenyl)propan-2-yl]acetamide]
